The stoichiometry N is the number of molecules, sites or subunits per partner or assembly.

The source of these data is article PMC10470521, “Structural basis of a bi-functional malonyl-CoA reductase (MCR) from the photosynthetic green non-sulfur bacterium Roseiflexus castenholzii” (mBio, 2023).

In one assay the target is T1, RfxMCR-N (Roseiflexus castenholzii, UniProt A7NN59).
T1 construct: gene Rcas_2929; N-terminal fragment Met1-Phe572 (SDR1-SDR2), C-terminal His6 tag (pET28a), E. coli BL21(DE3)
Nature of the assay: X-ray crystal structure, […] Å. The assay is classed as binding. The note with it: ternary complex with NADP+; SDR1 site; MSA not added, modelled in extra density; crystals grown in 1 M sodium malonate pH 5.0.

The target of another assay is T2, RfxMCR-C (Roseiflexus castenholzii, UniProt A7NN59).
T2 construct: gene Rcas_2929; C-terminal fragment Gly573-Val1229 (SDR3-ED-SDR4), N-terminal His6 tag (pET28a), E. coli BL21(DE3)
Nature of the assay: X-ray crystal structure, […] Å. Type of assay: binding. The note with it: SDR3 / ED interface.

Assay [1] has as its target RfxMCR-C (Gly573-Val1229) (Roseiflexus castenholzii DSM 13941) (UniProt A7NN59). Nature of the assay: crystal structure; RfxMCR-C with NADP+ and MSA; 1.6 M sodium formate, 0.1 M Bis-tris propane pH 7.0, 16°C; P6(5)22, dimer by crystal packing; 2.3 Å.
Assay [2] addresses T3, full-length RfxMCR (Roseiflexus castenholzii, UniProt A7NN59, R746A).
T3 construct: gene Rcas_2929; full length Met1-Val1229, C-terminal His6 tag (pET20b), E. coli BL21(DE3); homodimer ~270 kDa
Nature of the assay: NADPH oxidation at […] nm. The assay is classed as biochemical. The note with it: 0.4 mM NADPH, 5 mM MgCl2, 100 mM Tris-HCl pH 8.0, 150 mM NaCl, 50°C; apparent; overall two-step reduction; SDR3 site.

Assay [3] has as its target T4, full-length RfxMCR (Roseiflexus castenholzii, UniProt A7NN59, R799A).
T4 construct: gene Rcas_2929; full length Met1-Val1229, C-terminal His6 tag (pET20b), E. coli BL21(DE3); homodimer ~270 kDa
In words: NADPH oxidation at […] nm. The note with it: 0.4 mM NADPH, 5 mM MgCl2, 100 mM Tris-HCl pH 8.0, 150 mM NaCl, 50°C; apparent; overall two-step reduction; extra domain. Type of assay: biochemical.

The target of assay [4] is T5, full-length RfxMCR (Roseiflexus castenholzii, UniProt A7NN59, K182A).
T5 construct: gene Rcas_2929; full length Met1-Val1229, C-terminal His6 tag (pET20b), E. coli BL21(DE3); homodimer ~270 kDa
Nature of the assay: NADPH oxidation at […] nm. Type of assay: biochemical. The note with it: 0.4 mM NADPH, 5 mM MgCl2, 100 mM Tris-HCl pH 8.0, 150 mM NaCl, 50°C; apparent; overall two-step reduction.

Assay [5] deals with T6, full-length RfxMCR (Roseiflexus castenholzii, UniProt A7NN59, Y749A).
T6 construct: gene Rcas_2929; full length Met1-Val1229, C-terminal His6 tag (pET20b), E. coli BL21(DE3); homodimer ~270 kDa
In words: NADPH oxidation at […] nm. Type of assay: biochemical. The note with it: 0.4 mM NADPH, 5 mM MgCl2, 100 mM Tris-HCl pH 8.0, 150 mM NaCl, 50°C; apparent; overall two-step reduction.

The target of assay [6] is T7, full-length RfxMCR (Roseiflexus castenholzii, UniProt A7NN59, S731A).
T7 construct: gene Rcas_2929; full length Met1-Val1229, C-terminal His6 tag (pET20b), E. coli BL21(DE3); homodimer ~270 kDa
In words: NADPH oxidation at […] nm. Type of assay: biochemical. The note with it: 0.4 mM NADPH, 5 mM MgCl2, 100 mM Tris-HCl pH 8.0, 150 mM NaCl, 50°C; apparent; overall two-step reduction; SDR3 site.

In assay [7] the target is T8, full-length RfxMCR (Roseiflexus castenholzii, UniProt A7NN59, L795A).
T8 construct: gene Rcas_2929; full length Met1-Val1229, C-terminal His6 tag (pET20b), E. coli BL21(DE3); homodimer ~270 kDa
Nature of the assay: NADPH oxidation at […] nm. The assay is classed as biochemical. The note with it: 0.4 mM NADPH, 5 mM MgCl2, 100 mM Tris-HCl pH 8.0, 150 mM NaCl, 50°C; apparent; overall two-step reduction.

In assay [8] the target is T9, full-length RfxMCR (Roseiflexus castenholzii, UniProt A7NN59, K753A).
T9 construct: gene Rcas_2929; full length Met1-Val1229, C-terminal His6 tag (pET20b), E. coli BL21(DE3); homodimer ~270 kDa
Nature of the assay: NADPH oxidation at […] nm. The assay is classed as biochemical. The note with it: 0.4 mM NADPH, 5 mM MgCl2, 100 mM Tris-HCl pH 8.0, 150 mM NaCl, 50°C; apparent; overall two-step reduction.

Assay [9] deals with T10, full-length RfxMCR (Roseiflexus castenholzii, UniProt A7NN59, T165A).
T10 construct: gene Rcas_2929; full length Met1-Val1229, C-terminal His6 tag (pET20b), E. coli BL21(DE3); homodimer ~270 kDa
Nature of the assay: NADPH oxidation at […] nm. Type of assay: biochemical. The note with it: 0.4 mM NADPH, 5 mM MgCl2, 100 mM Tris-HCl pH 8.0, 150 mM NaCl, 50°C; apparent; overall two-step reduction; SDR1 site (second step, MSA to 3-HP).

Assay [10] concerns the target T11, full-length RfxMCR (Roseiflexus castenholzii, UniProt A7NN59, R785A).
T11 construct: gene Rcas_2929; full length Met1-Val1229, C-terminal His6 tag (pET20b), E. coli BL21(DE3); homodimer ~270 kDa
Nature of the assay: NADPH oxidation at […] nm. The note with it: 0.4 mM NADPH, 5 mM MgCl2, 100 mM Tris-HCl pH 8.0, 150 mM NaCl, 50°C; apparent; overall two-step reduction; extra domain. The assay is classed as biochemical.

Assay [11] deals with T12, full-length RfxMCR (Roseiflexus castenholzii, UniProt A7NN59, Y178A).
T12 construct: gene Rcas_2929; full length Met1-Val1229, C-terminal His6 tag (pET20b), E. coli BL21(DE3); homodimer ~270 kDa
Nature of the assay: NADPH oxidation at […] nm. Type of assay: biochemical. The note with it: 0.4 mM NADPH, 5 mM MgCl2, 100 mM Tris-HCl pH 8.0, 150 mM NaCl, 50°C; apparent; overall two-step reduction.

T2 sequence (A7NN59 entry or part of it): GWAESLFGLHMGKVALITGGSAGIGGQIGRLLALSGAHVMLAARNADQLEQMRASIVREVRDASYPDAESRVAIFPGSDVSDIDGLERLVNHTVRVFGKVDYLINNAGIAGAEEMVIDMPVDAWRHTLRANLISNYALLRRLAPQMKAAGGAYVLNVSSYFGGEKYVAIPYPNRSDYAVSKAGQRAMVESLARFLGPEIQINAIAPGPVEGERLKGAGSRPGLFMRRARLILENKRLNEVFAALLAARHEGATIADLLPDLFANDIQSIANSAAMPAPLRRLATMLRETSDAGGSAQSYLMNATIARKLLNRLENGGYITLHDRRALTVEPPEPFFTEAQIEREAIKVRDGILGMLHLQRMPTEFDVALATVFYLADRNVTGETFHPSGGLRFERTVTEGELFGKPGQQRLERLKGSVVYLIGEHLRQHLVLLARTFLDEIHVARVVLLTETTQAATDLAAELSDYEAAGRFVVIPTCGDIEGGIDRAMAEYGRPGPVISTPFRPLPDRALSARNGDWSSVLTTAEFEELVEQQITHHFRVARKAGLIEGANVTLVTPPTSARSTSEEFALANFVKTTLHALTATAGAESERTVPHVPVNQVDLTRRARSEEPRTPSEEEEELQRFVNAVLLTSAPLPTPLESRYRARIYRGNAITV
T1 sequence (A7NN59 entry or part of it): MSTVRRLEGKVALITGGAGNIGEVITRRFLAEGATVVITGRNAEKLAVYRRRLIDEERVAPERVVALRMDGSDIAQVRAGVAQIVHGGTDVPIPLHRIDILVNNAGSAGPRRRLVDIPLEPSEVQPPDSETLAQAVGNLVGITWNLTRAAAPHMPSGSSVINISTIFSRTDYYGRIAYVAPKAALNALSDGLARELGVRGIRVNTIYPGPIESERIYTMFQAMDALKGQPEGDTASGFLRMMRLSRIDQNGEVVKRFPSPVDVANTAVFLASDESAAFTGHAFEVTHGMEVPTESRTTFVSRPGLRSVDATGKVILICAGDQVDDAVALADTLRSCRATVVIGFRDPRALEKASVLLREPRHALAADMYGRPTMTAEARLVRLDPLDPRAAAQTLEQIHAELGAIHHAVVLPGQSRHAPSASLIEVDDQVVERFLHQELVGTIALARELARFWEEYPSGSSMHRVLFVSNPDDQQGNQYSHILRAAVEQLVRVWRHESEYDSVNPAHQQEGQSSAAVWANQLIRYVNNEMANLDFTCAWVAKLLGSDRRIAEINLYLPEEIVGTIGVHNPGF
T11 sequence (A7NN59 entry or part of it R785A): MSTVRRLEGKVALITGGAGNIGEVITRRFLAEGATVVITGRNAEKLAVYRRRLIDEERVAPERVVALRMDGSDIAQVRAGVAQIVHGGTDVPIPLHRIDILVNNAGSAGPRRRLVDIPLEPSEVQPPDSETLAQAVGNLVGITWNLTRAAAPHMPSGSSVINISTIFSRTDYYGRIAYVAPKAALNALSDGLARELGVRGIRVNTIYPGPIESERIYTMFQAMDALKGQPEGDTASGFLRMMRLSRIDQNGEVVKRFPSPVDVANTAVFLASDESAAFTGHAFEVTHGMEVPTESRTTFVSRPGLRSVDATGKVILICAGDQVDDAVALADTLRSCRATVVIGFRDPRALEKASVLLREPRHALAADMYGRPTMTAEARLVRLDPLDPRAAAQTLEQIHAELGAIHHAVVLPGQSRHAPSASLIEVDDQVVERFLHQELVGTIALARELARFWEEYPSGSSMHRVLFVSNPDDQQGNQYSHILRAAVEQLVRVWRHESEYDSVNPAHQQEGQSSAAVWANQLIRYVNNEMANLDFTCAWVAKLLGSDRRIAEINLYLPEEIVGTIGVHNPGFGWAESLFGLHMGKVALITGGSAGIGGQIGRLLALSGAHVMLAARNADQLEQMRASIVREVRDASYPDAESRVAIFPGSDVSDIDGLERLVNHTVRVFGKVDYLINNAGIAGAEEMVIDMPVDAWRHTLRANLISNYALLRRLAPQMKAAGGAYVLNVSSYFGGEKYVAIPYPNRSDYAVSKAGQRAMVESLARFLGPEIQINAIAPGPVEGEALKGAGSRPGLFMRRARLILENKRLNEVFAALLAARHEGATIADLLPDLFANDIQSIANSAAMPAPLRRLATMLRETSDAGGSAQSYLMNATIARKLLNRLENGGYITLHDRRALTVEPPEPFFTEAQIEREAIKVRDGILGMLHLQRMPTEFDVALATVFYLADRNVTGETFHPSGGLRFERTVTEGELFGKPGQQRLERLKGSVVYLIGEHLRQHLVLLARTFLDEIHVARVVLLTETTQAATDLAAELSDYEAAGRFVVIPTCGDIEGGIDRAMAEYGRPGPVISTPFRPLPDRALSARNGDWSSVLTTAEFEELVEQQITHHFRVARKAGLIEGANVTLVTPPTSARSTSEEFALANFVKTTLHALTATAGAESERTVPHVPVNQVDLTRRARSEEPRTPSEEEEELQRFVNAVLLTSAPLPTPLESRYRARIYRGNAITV
T12 sequence (A7NN59 entry or part of it Y178A): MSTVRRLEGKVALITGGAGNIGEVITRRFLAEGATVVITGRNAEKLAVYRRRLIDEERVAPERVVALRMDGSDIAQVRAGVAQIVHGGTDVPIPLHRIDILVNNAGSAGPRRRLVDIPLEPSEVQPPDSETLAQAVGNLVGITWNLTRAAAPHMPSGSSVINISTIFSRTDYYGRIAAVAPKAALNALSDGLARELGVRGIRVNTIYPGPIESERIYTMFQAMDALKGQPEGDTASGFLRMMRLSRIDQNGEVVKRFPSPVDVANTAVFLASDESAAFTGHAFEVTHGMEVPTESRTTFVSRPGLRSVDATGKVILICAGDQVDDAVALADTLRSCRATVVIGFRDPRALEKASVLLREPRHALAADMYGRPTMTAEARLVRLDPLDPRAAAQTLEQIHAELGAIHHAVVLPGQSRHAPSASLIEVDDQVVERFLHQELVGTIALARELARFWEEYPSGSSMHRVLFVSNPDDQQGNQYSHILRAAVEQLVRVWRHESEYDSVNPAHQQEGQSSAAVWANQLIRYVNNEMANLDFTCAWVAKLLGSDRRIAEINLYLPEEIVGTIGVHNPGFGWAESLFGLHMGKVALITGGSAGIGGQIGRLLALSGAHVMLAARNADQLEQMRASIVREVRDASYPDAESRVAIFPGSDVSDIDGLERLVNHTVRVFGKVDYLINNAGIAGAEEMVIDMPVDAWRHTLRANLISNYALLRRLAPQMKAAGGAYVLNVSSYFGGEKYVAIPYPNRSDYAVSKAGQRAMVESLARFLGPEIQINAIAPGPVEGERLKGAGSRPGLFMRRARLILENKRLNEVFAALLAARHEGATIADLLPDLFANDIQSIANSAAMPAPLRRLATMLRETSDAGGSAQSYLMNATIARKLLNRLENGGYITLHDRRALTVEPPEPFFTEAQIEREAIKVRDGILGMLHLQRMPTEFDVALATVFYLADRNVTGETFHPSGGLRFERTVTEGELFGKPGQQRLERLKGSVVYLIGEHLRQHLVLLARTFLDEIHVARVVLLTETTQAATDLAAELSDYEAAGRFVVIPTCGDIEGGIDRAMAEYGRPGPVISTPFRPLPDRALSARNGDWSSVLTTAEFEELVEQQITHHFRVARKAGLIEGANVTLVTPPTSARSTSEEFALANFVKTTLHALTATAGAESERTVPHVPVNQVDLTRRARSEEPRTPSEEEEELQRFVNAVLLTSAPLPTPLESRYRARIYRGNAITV
T3 sequence (A7NN59 entry or part of it R746A): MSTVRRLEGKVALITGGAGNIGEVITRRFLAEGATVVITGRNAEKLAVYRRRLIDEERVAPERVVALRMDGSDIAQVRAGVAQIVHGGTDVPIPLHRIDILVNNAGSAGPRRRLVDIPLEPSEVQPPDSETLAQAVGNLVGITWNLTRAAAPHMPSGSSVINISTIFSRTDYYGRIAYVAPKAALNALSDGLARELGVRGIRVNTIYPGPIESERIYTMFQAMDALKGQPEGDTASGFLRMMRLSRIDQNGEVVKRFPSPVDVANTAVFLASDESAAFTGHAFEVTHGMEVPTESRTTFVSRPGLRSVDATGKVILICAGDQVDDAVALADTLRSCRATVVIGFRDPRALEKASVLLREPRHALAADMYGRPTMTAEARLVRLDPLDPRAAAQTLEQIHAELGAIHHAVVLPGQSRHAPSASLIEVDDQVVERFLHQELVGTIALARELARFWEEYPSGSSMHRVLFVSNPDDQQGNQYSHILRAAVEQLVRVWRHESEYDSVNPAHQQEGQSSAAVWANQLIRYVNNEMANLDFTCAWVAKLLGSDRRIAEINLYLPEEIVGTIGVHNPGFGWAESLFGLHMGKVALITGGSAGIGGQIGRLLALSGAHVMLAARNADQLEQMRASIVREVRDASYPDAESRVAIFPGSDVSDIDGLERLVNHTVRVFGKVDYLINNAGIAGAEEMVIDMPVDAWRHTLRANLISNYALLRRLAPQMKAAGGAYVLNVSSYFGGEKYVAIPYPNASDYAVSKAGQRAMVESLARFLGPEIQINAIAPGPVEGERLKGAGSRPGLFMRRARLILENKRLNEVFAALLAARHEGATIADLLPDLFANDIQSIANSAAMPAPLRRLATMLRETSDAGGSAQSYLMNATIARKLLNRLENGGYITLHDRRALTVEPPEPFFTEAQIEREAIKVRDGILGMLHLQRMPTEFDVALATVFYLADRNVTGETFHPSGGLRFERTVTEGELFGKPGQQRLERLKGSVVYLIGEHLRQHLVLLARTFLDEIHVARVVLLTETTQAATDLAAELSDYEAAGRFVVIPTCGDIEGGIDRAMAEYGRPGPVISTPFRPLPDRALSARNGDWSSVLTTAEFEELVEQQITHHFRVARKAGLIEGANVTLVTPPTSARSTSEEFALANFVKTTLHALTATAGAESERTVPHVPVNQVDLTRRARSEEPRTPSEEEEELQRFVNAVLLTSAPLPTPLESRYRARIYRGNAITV

`O=CCC(=O)O` [malonate semialdehyde]: the “X-ray crystal structure, 2.0 Å” value on RfxMCR-N was “extra electron density that precisely matched the reduction intermediate MSA”. Besides, the “X-ray crystal structure, 2.3 Å” value at RfxMCR-C (ternary complex with NADP+, MSA not added, modelled in density) was “a cofactor NADP^+ and intermediate MSA were resolved at the interface between the SDR3”.

For the compound “RfxMCR-C (Gly573-Val1229) (from UniProt A7NN59 573-1229) (domain or fragment)”, in assay [1], the stoichiometry N turned out to be 2.

In the case of `CC(C)(COP(=O)(O)OP(=O)(O)OC[C@H]1O[C@@H](n2cnc3c(N)ncnc32)[C@H](O)[C@@H]1OP(=O)(O)O)[C@@H](O)C(=O)NCCC(=O)NCCSC(=O)CC(=O)O` [malonyl-CoA], the overall enzymatic activity entry on full-length RfxMCR [2] is “mutagenesis of Arg746, Arg785, and Leu795”; on full-length RfxMCR [3], “Ser731, Tyr749, Lys753, and Arg799 completely eliminated enzymatic activity”; at full-length RfxMCR [4] it was “Site-directed mutation of Thr165, Tyr172, Arg175, Tyr178, and Lys182 to Ala residues”; at full-length RfxMCR [5], “Ser731, Tyr749, Lys753, and Arg799 completely eliminated enzymatic activity”; at full-length RfxMCR [6], “Ser731, Tyr749, Lys753, and Arg799 completely eliminated enzymatic activity”; on full-length RfxMCR [7], “mutagenesis of Arg746, Arg785, and Leu795”. The overall enzymatic activity result at full-length RfxMCR [8] was “Ser731, Tyr749, Lys753, and Arg799 completely eliminated enzymatic activity”; on full-length RfxMCR [9], “Site-directed mutation of Thr165, Tyr172, Arg175, Tyr178, and Lys182 to Ala residues”; at full-length RfxMCR [10] it was “mutagenesis of Arg746, Arg785, and Leu795”; on full-length RfxMCR [11] it was “Site-directed mutation of Thr165, Tyr172, Arg175, Tyr178, and Lys182 to Ala residues”.

Take `NC(=O)c1ccc[n+]([C@@H]2O[C@H](COP(=O)(O)OP(=O)(O)OC[C@H]3O[C@@H](n4cnc5c(N)ncnc54)[C@H](OP(=O)(O)O)[C@@H]3O)[C@@H](O)[C@H]2O)c1` [NADP^+]: the “X-ray crystal structure, 2.3 Å” value at RfxMCR-C (ternary complex with MSA) was “a cofactor NADP^+ and intermediate MSA were resolved at the interface between the SDR3”.
